According to ChEMBL document CHEMBL1123689, “Quantitative structure-activity analysis in dihydropteroate synthase inhibition by sulfones. Comparison with sulfanilamides” (J Med Chem, 1987):
“And” between values parts separate entries of the source, which are not always exact repeats. Equal values may be shown once.

Legend:
[1] = biological target: T1, Dihydropteroate synthase (Escherichia coli K-12) (UniProt P0AC13); assay: Inhibition of dihydropteroate synthase of Escherichia coli
T1 sequence (whole entry): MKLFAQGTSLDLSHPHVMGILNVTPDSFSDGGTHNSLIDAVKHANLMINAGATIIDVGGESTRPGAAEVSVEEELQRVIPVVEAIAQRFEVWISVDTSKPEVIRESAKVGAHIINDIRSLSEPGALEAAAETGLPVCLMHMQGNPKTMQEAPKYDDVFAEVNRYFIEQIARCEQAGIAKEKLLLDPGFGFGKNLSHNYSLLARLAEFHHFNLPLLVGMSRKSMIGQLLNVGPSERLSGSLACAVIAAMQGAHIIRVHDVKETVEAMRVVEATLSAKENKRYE

Mycobacterium 607 = assay: Inhibition of Dihydropteroate synthase of Mycobacterium 607 and log (1/MIC) was reported
[2] = pKa value by spectrophotometrically at pH 8.2; format: physicochemical
[3] = pKa value was determined by spectrophotometrically at pH 8.2 (for di ionic form ); format: physicochemical; settings: read-out: pKa2
[4] = pKa value by spectrophotometrically at pH 8.2 (for mono ionic form); format: physicochemical; settings: read-out: pKa1
[5] = pKa value by spectrophotometrically at pH 8.2 (for di ionic form ); format: physicochemical; settings: read-out: pKa2

| Structure (SMILES) | EII50 [1] | Log 1/MIC (Mycobacterium 607) | further results |
| --- | --- | --- | --- |
| COC(=O)c1ccc(S(=O)(=O)c2ccc(N)cc2)cc1 | 34 |  |  |
| Nc1ccc(S(=O)(=O)c2ccc(NO)cc2)cc1 | 4.53 | 4.46 |  |
| CCN(CC)c1ccc(S(=O)(=O)c2ccc(N)cc2)cc1 | 2.64 |  |  |
| Nc1ccc(S(=O)(=O)c2c(Cl)cc(Cl)cc2Cl)cc1 | 3.31 |  |  |
| CCNc1ccc(S(=O)(=O)c2ccc(N)cc2)cc1 | 4.53 | 4.26 |  |
| Nc1ccc(S(=O)(=O)c2ccc([N+](=O)[O-])cc2)cc1 | 45.3 | 3.36 |  |
| NC(=O)c1ccc(S(=O)(=O)c2ccc(N)cc2)cc1 | 22.6 |  |  |
| N#Cc1ccc(S(=O)(=O)c2ccc(N)cc2)cc1 | 67.3 |  |  |
| CC(=O)c1ccc(S(=O)(=O)c2ccc(N)cc2)cc1 | 43.4 |  |  |
| Nc1ccc(S(=O)(=O)c2ccc(NC=O)cc2)cc1 | 5.79 | 4.74 |  |
| CC(=O)Nc1ccc(S(=O)(=O)c2ccc(N)cc2)cc1 | 5.75 |  |  |
| CCN(CC)C(=O)c1ccc(S(=O)(=O)c2ccc(N)cc2)cc1 | 49.1 |  |  |
| Nc1ccc(S(=O)(=O)c2ccccc2)cc1 | 9.56 |  |  |
| CN(C)c1ccc(S(=O)(=O)c2ccc(N)cc2)cc1 | 3.63 |  |  |
| Cc1cc(C)c(S(=O)(=O)c2ccc(N)cc2)c(C)c1 | 1.69 |  |  |
| COc1cc(OC)c(S(=O)(=O)c2ccc(N)cc2)c(OC)c1 | 12.9 |  |  |

Further lines, with some results ahead:

| EII50 [1] | Log 1/MIC (Mycobacterium 607) | Structure (SMILES) | further results |
| --- | --- | --- | --- |
| 2.24 |  | Nc1ccc(S(=O)(=O)c2ccc(Cl)cc2Cl)cc1 |  |
| 1.5 and 2.45 | 5.96 | Nc1ccc(S(=O)(=O)c2ccc(O)cc2)cc1 |  |
| 2.27 | 4.35 | Nc1ccc(S(=O)(=O)c2ccccc2N)cc1 |  |
| 36.3 |  | Nc1ccc(S(=O)(=O)c2ccc([N+](=O)[O-])cc2[N+](=O)[O-])cc1 |  |
| 5.09 |  | Nc1ccc(S(=O)(=O)c2ccc(C(=O)O)cc2)cc1 | pKa [2]: 3.6 |
| 11.1 | 3.59 | Nc1ccc(S(=O)(=O)c2ccc(Br)cc2)cc1 |  |
| 3.21 |  | COc1ccc(S(=O)(=O)c2ccc(N)cc2)c(OC)c1 |  |
| 2.64 |  | Nc1ccc(S(=O)(=O)c2ccc(N)cc2)cc1 |  |
| 20.8 |  | Nc1ccc(S(=O)(=O)c2ccc(Cl)cc2)cc1 |  |
| 6.6 | 4.02 | COc1ccc(S(=O)(=O)c2ccc(N)cc2)cc1 |  |
| 0.71 |  | Nc1ccc(S(=O)(=O)c2ccc(O)cc2O)cc1 | pKa [3]: 10.1; pKa [4]: 7.67 |
| 6.04 |  | Cc1ccc(S(=O)(=O)c2ccc(N)cc2)cc1 |  |
| 6.04 | 4.62 | Nc1ccc(S(=O)(=O)c2cccc(N)c2)cc1 |  |
| 1.46 and 1.91 |  | Nc1ccc(S(=O)(=O)c2c(O)cc(O)cc2O)cc1 | pKa [4]: 7.69; pKa [5]: 9.62 |
| 18.1 | 3.5 | Nc1ccc(S(=O)(=O)c2ccc(F)cc2)cc1 |  |
| 1.89 |  | Cc1ccc(S(=O)(=O)c2ccc(N)cc2)c(C)c1 |  |
| 1.59 |  | Nc1ccc(S(=O)(=O)c2ccc(N)cc2N)cc1 |  |
